Laboratory results published in the supplement of paper PMC10307832.

How the values were obtained:
Assay in all cases: relative viability (nuclei count vs DMSO), 5 days (fraction); higher = more cells survive
GSK-J4 + Olaparib = compound: CCOC(=O)CCNc1cc(N2CCc3ccccc3CC2)nc(-c2ccccn2)n1 [GSK-J4] + O=C(c1cc(Cc2n[nH]c(=O)c3ccccc23)ccc1F)N1CCN(C(=O)C2CC2)CC1 [Olaparib] (partner 8 µM)
Procedure, shortened: (§1)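 Relative viability equals treated-well nuclei counts divided by vehicle-well nuclei counts. Counts came from 4× images of lung cancer cell lines grown in 1536-well plates for 5 days after pin-tool dosing on the day after seeding. Dosing used one drug alone or a fixed anchor-drug dose plus five library-drug doses (not always all listed) in √10 steps, and values are medians of duplicate plates.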

GSK-J4 + Bortezomib = compound: CCOC(=O)CCNc1cc(N2CCc3ccccc3CC2)nc(-c2ccccn2)n1 [GSK-J4] + CC(C)C[C@H](NC(=O)[C@H](Cc1ccccc1)NC(=O)c1cnccn1)B(O)O [Bortezomib] (partner 0.002 µM)
Procedure, shortened: as §1

GSK-J4 + Tozasertib = compound: CCOC(=O)CCNc1cc(N2CCc3ccccc3CC2)nc(-c2ccccn2)n1 [GSK-J4] + Cc1cc(Nc2cc(N3CCN(C)CC3)nc(Sc3ccc(NC(=O)C4CC4)cc3)n2)n[nH]1 [Tozasertib] (partner 0.1 µM)
Procedure, shortened: as §1

GSK-J4 + Lapatinib = compound: CCOC(=O)CCNc1cc(N2CCc3ccccc3CC2)nc(-c2ccccn2)n1 [GSK-J4] + CS(=O)(=O)CCNCc1ccc(-c2ccc3ncnc(Nc4ccc(OCc5cccc(F)c5)c(Cl)c4)c3c2)o1 [Lapatinib] (partner 2 µM)
Procedure, shortened: as §1

LOU-NH91
relative viability (GSK-J4 + Olaparib; first compound 0.5 µM): 0.932
relative viability (GSK-J4 + Olaparib; first compound 1.581 µM): 0.859
relative viability (GSK-J4 + Olaparib; first compound 5 µM): 0.691
relative viability (GSK-J4 + Olaparib; first compound 15.81 µM): 0.872
relative viability (GSK-J4 + Olaparib; first compound 50 µM): 0.802
relative viability (GSK-J4 + Bortezomib; first compound 0.5 µM): 0.525
relative viability (GSK-J4 + Bortezomib; first compound 1.581 µM): 0.497
relative viability (GSK-J4 + Bortezomib; first compound 5 µM): 0.426
relative viability (GSK-J4 + Bortezomib; first compound 15.81 µM): 0.467
relative viability (GSK-J4 + Bortezomib; first compound 50 µM): 0.621
relative viability (GSK-J4 + Tozasertib; first compound 0.5 µM): 0.654
relative viability (GSK-J4 + Tozasertib; first compound 1.581 µM): 0.502
relative viability (GSK-J4 + Tozasertib; first compound 5 µM): 0.438
relative viability (GSK-J4 + Tozasertib; first compound 15.81 µM): 0.619
relative viability (GSK-J4 + Tozasertib; first compound 50 µM): 0.644
relative viability (GSK-J4 + Lapatinib; first compound 0.5 µM): 0.688
relative viability (GSK-J4 + Lapatinib; first compound 1.581 µM): 0.754
relative viability (GSK-J4 + Lapatinib; first compound 5 µM): 0.626
relative viability (GSK-J4 + Lapatinib; first compound 15.81 µM): 0.625
relative viability (GSK-J4 + Lapatinib; first compound 50 µM): 0.64

LU99A
relative viability (GSK-J4 + Olaparib; first compound 0.5 µM): 0.248
relative viability (GSK-J4 + Olaparib; first compound 1.581 µM): 0.265
relative viability (GSK-J4 + Olaparib; first compound 15.81 µM): 0.207
relative viability (GSK-J4 + Olaparib; first compound 50 µM): 0.205
relative viability (GSK-J4 + Bortezomib; first compound 0.5 µM): 1.07
relative viability (GSK-J4 + Bortezomib; first compound 1.581 µM): 0.777
relative viability (GSK-J4 + Bortezomib; first compound 5 µM): 0.777
relative viability (GSK-J4 + Bortezomib; first compound 15.81 µM): 1.21
relative viability (GSK-J4 + Bortezomib; first compound 50 µM): 0.632
relative viability (GSK-J4 + Tozasertib; first compound 0.5 µM): 0.233
relative viability (GSK-J4 + Tozasertib; first compound 1.581 µM): 0.276
relative viability (GSK-J4 + Tozasertib; first compound 15.81 µM): 0.281
relative viability (GSK-J4 + Tozasertib; first compound 50 µM): 0.253
relative viability (GSK-J4 + Lapatinib; first compound 0.5 µM): 0.992
relative viability (GSK-J4 + Lapatinib; first compound 1.581 µM): 0.79
relative viability (GSK-J4 + Lapatinib; first compound 5 µM): 0.842
relative viability (GSK-J4 + Lapatinib; first compound 15.81 µM): 0.921
relative viability (GSK-J4 + Lapatinib; first compound 50 µM): 0.607

PC-14
relative viability (GSK-J4 + Olaparib; first compound 0.5 µM): 0.304
relative viability (GSK-J4 + Olaparib; first compound 1.581 µM): 0.271
relative viability (GSK-J4 + Olaparib; first compound 5 µM): 0.195
relative viability (GSK-J4 + Olaparib; first compound 15.81 µM): 0.228
relative viability (GSK-J4 + Olaparib; first compound 50 µM): 0.227
relative viability (GSK-J4 + Bortezomib; first compound 0.5 µM): 0.719
relative viability (GSK-J4 + Bortezomib; first compound 1.581 µM): 0.91
relative viability (GSK-J4 + Bortezomib; first compound 5 µM): 0.973
relative viability (GSK-J4 + Bortezomib; first compound 15.81 µM): 0.759
relative viability (GSK-J4 + Bortezomib; first compound 50 µM): 0.8
relative viability (GSK-J4 + Tozasertib; first compound 0.5 µM): 0.547
relative viability (GSK-J4 + Tozasertib; first compound 1.581 µM): 0.542
relative viability (GSK-J4 + Tozasertib; first compound 15.81 µM): 0.564
relative viability (GSK-J4 + Tozasertib; first compound 50 µM): 0.665
relative viability (GSK-J4 + Lapatinib; first compound 0.5 µM): 0.351
relative viability (GSK-J4 + Lapatinib; first compound 1.581 µM): 0.228
relative viability (GSK-J4 + Lapatinib; first compound 5 µM): 0.344
relative viability (GSK-J4 + Lapatinib; first compound 15.81 µM): 0.249
relative viability (GSK-J4 + Lapatinib; first compound 50 µM): 0.323

LC-2-ad
relative viability (GSK-J4 + Olaparib; first compound 0.5 µM): 0.69
relative viability (GSK-J4 + Olaparib; first compound 1.581 µM): 0.643
relative viability (GSK-J4 + Olaparib; first compound 5 µM): 0.672
relative viability (GSK-J4 + Olaparib; first compound 15.81 µM): 0.701
relative viability (GSK-J4 + Olaparib; first compound 50 µM): 0.55
relative viability (GSK-J4 + Bortezomib; first compound 0.5 µM): 0.932
relative viability (GSK-J4 + Bortezomib; first compound 1.581 µM): 0.907
relative viability (GSK-J4 + Bortezomib; first compound 5 µM): 0.749
relative viability (GSK-J4 + Bortezomib; first compound 15.81 µM): 1.01
relative viability (GSK-J4 + Bortezomib; first compound 50 µM): 0.94
relative viability (GSK-J4 + Tozasertib; first compound 0.5 µM): 0.429
relative viability (GSK-J4 + Tozasertib; first compound 1.581 µM): 0.377
relative viability (GSK-J4 + Tozasertib; first compound 5 µM): 0.41
relative viability (GSK-J4 + Tozasertib; first compound 15.81 µM): 0.399
relative viability (GSK-J4 + Tozasertib; first compound 50 µM): 0.36
relative viability (GSK-J4 + Lapatinib; first compound 0.5 µM): 1.04
relative viability (GSK-J4 + Lapatinib; first compound 1.581 µM): 0.743
relative viability (GSK-J4 + Lapatinib; first compound 5 µM): 0.809
relative viability (GSK-J4 + Lapatinib; first compound 15.81 µM): 0.904
relative viability (GSK-J4 + Lapatinib; first compound 50 µM): 0.664

NCI-H2126
relative viability (GSK-J4 + Olaparib; first compound 0.5 µM): 0.912
relative viability (GSK-J4 + Olaparib; first compound 1.581 µM): 0.895
relative viability (GSK-J4 + Olaparib; first compound 5 µM): 0.966
relative viability (GSK-J4 + Olaparib; first compound 15.81 µM): 0.855
relative viability (GSK-J4 + Olaparib; first compound 50 µM): 0.762
relative viability (GSK-J4 + Bortezomib; first compound 0.5 µM): 1.02
relative viability (GSK-J4 + Bortezomib; first compound 1.581 µM): 0.617
relative viability (GSK-J4 + Bortezomib; first compound 5 µM): 1.09
relative viability (GSK-J4 + Bortezomib; first compound 15.81 µM): 1.05
relative viability (GSK-J4 + Bortezomib; first compound 50 µM): 0.998
relative viability (GSK-J4 + Tozasertib; first compound 0.5 µM): 0.793
relative viability (GSK-J4 + Tozasertib; first compound 1.581 µM): 0.676
relative viability (GSK-J4 + Tozasertib; first compound 5 µM): 0.794
relative viability (GSK-J4 + Tozasertib; first compound 15.81 µM): 0.839
relative viability (GSK-J4 + Tozasertib; first compound 50 µM): 0.733
relative viability (GSK-J4 + Lapatinib; first compound 0.5 µM): 0.817
relative viability (GSK-J4 + Lapatinib; first compound 1.581 µM): 0.657
relative viability (GSK-J4 + Lapatinib; first compound 5 µM): 0.854
relative viability (GSK-J4 + Lapatinib; first compound 15.81 µM): 0.69
relative viability (GSK-J4 + Lapatinib; first compound 50 µM): 0.59
